Each structure is given as a SMILES string.

What all share (type): in vivo
What all share (conditions): 1000 g/h, evaluated after 13 days, five point scale

Test [1] has as its system Solanum nigrum (SOLNI). Kind of test: Post-emergence glasshouse herbicide test, Solanum nigrum. As for the experimental part: (§1) Seeds of a variety of test species are sown in standard soil in pots (Lolium perenne (LOLPE), Solanum nigrum (SOLNI), Amaranthus retoflexus (AMARE), Setaria faberi (SETFA), Echinochloa crus-galli (ECHCG), Ipomoea hederacea (IPOHE)). After cultivation for one day (pre-emergence) or after 8 days cultivation (post-emergence) under controlled conditions in a glasshouse (at 24/16° C., day/night; 14 hours light; 65% humidity), the plants are sprayed with an aqueous spray solution derived from the formulation of the technical active ingredient in acetone/water (50:50) solution containing 0.5% Tween 20 (polyoxyethelyene sorbitan monolaurate, CAS RN 9005-64-5). Compounds are applied at 1000 g/h. The test plants are then grown in a glasshouse under controlled conditions in a glasshouse (at 24/16° C., day/night; 14 hours light; 65% humidity) and watered twice daily. After 13 days for pre and post-emergence, the test is evaluated for the percentage damage caused to the plant. The biological activities are shown in the following table on a five point scale (5=80-100%; 4=60-79%; 3=40-59%; 2=20-39%; 1=0-19%).

Test [2] deals with Ipomoea hederacea (IPOHE). Nature of the test: Pre-emergence glasshouse herbicide test, Ipomoea hederacea. As for the experimental part:
as §1, with “Compounds are applied at 1000 g/h.” left out

The test system of test [3] is Setaria faberi (SETFA). Nature of the test: Post-emergence glasshouse herbicide test, Setaria faberi. On the procedure:
as §1, with “Compounds are applied at 1000 g/h.” left out

Test [4] concerns Echinochloa crus-galli (ECHCG). Nature of the test: Pre-emergence glasshouse herbicide test, Echinochloa crus-galli. As for the experimental part:
as §1, with “Compounds are applied at 1000 g/h.” left out

In test [5] the test system is Solanum nigrum (SOLNI). Nature of the test: Pre-emergence glasshouse herbicide test, Solanum nigrum. As for the experimental part: as §1
The test system of test [6] is Lolium perenne (LOLPE). Kind of test: Post-emergence glasshouse herbicide test, Lolium perenne. On the procedure: as §1, with “Compounds are applied at 1000 g/h.” left out
Test [7] deals with Echinochloa crus-galli (ECHCG). Kind of test: Post-emergence glasshouse herbicide test, Echinochloa crus-galli. As for the experimental part: as §1, with “Compounds are applied at 1000 g/h.” left out
Test [8] has as its system Setaria faberi (SETFA). Kind of test: Pre-emergence glasshouse herbicide test, Setaria faberi. On the procedure: as §1, with “Compounds are applied at 1000 g/h.” left out
The subject of test [9] is Amaranthus retoflexus (AMARE). Nature of the test: Post-emergence glasshouse herbicide test, Amaranthus retoflexus. As for the experimental part: as §1, with “Compounds are applied at 1000 g/h.” left out
Test [10] relates to Amaranthus retoflexus (AMARE). Kind of test: Pre-emergence glasshouse herbicide test, Amaranthus retoflexus. On the procedure:
as §1, with “Compounds are applied at 1000 g/h.” left out

The test system of test [11] is Ipomoea hederacea (IPOHE). Kind of test: Post-emergence glasshouse herbicide test, Ipomoea hederacea. As for the experimental part: as §1, with “Compounds are applied at 1000 g/h.” left out
In test [12] the test system is Lolium perenne (LOLPE). Nature of the test: Pre-emergence glasshouse herbicide test, Lolium perenne. On the procedure:
as §1, with “Compounds are applied at 1000 g/h.” left out

On to `Cn1nnnc1NC(=O)c1nn2cnn(-c3ccccc3)c2nc1=O` [Compound 1.001], for which, in the test on Solanum nigrum (SOLNI) [1], the “percentage damage caused to the plant, POST Application SOLNI” value is recorded as 5 (5=80-100%). The “percentage damage caused to the plant, PRE Application IPOHE” value in test [2] is recorded as 4 (4=60-79%). Moreover, the “percentage damage caused to the plant, POST Application SETFA” value with Setaria faberi (SETFA) [3] was 5 (5=80-100%). The “percentage damage caused to the plant, PRE Application ECHCG” value in test [4] was 5 (5=80-100%). The “percentage damage caused to the plant, PRE Application SOLNI” value in the test with Solanum nigrum (SOLNI) [5] was 5 (5=80-100%). In the test on Lolium perenne (LOLPE) [6], the “percentage damage caused to the plant, POST Application LOLPE” value was 3 (3=40-59%). For the same molecule, the “percentage damage caused to the plant, POST Application ECHCG” value in test [7] is 5 (5=80-100%). In addition, in the test on Setaria faberi (SETFA) [8], the “percentage damage caused to the plant, PRE Application SETFA” value was 5 (5=80-100%). The “percentage damage caused to the plant, POST Application AMARE” value in [9] is 5 (5=80-100%). The “percentage damage caused to the plant, PRE Application AMARE” value in test [10] is reported as 5 (5=80-100%). Moreover, in test [11], the “percentage damage caused to the plant, POST Application IPOHE” value was 5 (5=80-100%). The “percentage damage caused to the plant, PRE Application LOLPE” value in the test with Lolium perenne (LOLPE) [12] is recorded as 3 (3=40-59%).
With `Cn1nnnc1NC(=O)c1nn2cnn(-c3ccc(F)cc3)c2nc1=O` [Compound 1.002], in the test on Solanum nigrum (SOLNI) [1], the “percentage damage caused to the plant, POST Application SOLNI” value is given as 5 (5=80-100%). Moreover, the “percentage damage caused to the plant, PRE Application IPOHE” value in test [2] was 5 (5=80-100%). The “percentage damage caused to the plant, POST Application SETFA” value in the test with Setaria faberi (SETFA) [3] is on record as 5 (5=80-100%). Further, the “percentage damage caused to the plant, PRE Application ECHCG” value in test [4] is reported as 5 (5=80-100%). In the test on Solanum nigrum (SOLNI) [5], the “percentage damage caused to the plant, PRE Application SOLNI” value is recorded as 5 (5=80-100%). The “percentage damage caused to the plant, POST Application LOLPE” value with Lolium perenne (LOLPE) [6] is on record as 5 (5=80-100%). In addition, the “percentage damage caused to the plant, POST Application ECHCG” value in test [7] is 5 (5=80-100%). Besides, the “percentage damage caused to the plant, PRE Application SETFA” value with Setaria faberi (SETFA) [8] is 5 (5=80-100%). Moreover, the “percentage damage caused to the plant, POST Application AMARE” value in test [9] was 5 (5=80-100%). For the same molecule, the “percentage damage caused to the plant, PRE Application AMARE” value in test [10] is reported as 5 (5=80-100%). Moreover, the “percentage damage caused to the plant, POST Application IPOHE” value in test [11] was 5 (5=80-100%). Also, the “percentage damage caused to the plant, PRE Application LOLPE” value in the test on Lolium perenne (LOLPE) [12] is reported as 4 (4=60-79%).
Regarding `COc1ccc(-n2ncn3nc(C(=O)Nc4nnnn4C)c(=O)nc23)cc1` [Compound 1.003], the “percentage damage caused to the plant, POST Application SOLNI” value in the test on Solanum nigrum (SOLNI) [1] is 5 (5=80-100%). The “percentage damage caused to the plant, PRE Application IPOHE” value in [2] is on record as 5 (5=80-100%). Also, in the test on Setaria faberi (SETFA) [3], the “percentage damage caused to the plant, POST Application SETFA” value is reported as 5 (5=80-100%). For the same molecule, in test [4], the “percentage damage caused to the plant, PRE Application ECHCG” value was 5 (5=80-100%). The “percentage damage caused to the plant, PRE Application SOLNI” value in the test with Solanum nigrum (SOLNI) [5] is on record as 5 (5=80-100%). The “percentage damage caused to the plant, POST Application LOLPE” value with Lolium perenne (LOLPE) [6] is 4 (4=60-79%). In addition, in [7], the “percentage damage caused to the plant, POST Application ECHCG” value is 5 (5=80-100%). The “percentage damage caused to the plant, PRE Application SETFA” value in the test on Setaria faberi (SETFA) [8] was 5 (5=80-100%). In addition, the “percentage damage caused to the plant, POST Application AMARE” value in [9] is on record as 5 (5=80-100%). For the same molecule, in test [10], the “percentage damage caused to the plant, PRE Application AMARE” value is 5 (5=80-100%). The “percentage damage caused to the plant, POST Application IPOHE” value in test [11] was 5 (5=80-100%). Further, the “percentage damage caused to the plant, PRE Application LOLPE” value in the test on Lolium perenne (LOLPE) [12] was 4 (4=60-79%).
As for `CCn1nnnc1NC(=O)c1nn2cnn(-c3cccc(C)c3)c2nc1=O` [Compound 1.046], the “percentage damage caused to the plant, PRE Application IPOHE” value in test [2] is listed as 5 (5=80-100%). In the test on Setaria faberi (SETFA) [3], the “percentage damage caused to the plant, POST Application SETFA” value is reported as 5 (5=80-100%). In addition, the “percentage damage caused to the plant, PRE Application ECHCG” value in test [4] is listed as 5 (5=80-100%). In addition, the “percentage damage caused to the plant, POST Application ECHCG” value in test [7] is given as 5 (5=80-100%). Also, the “percentage damage caused to the plant, PRE Application SETFA” value in the test with Setaria faberi (SETFA) [8] is 5 (5=80-100%). In addition, the “percentage damage caused to the plant, POST Application AMARE” value in test [9] is reported as 5 (5=80-100%). Also, the “percentage damage caused to the plant, PRE Application AMARE” value in test [10] was 5 (5=80-100%). The “percentage damage caused to the plant, POST Application IPOHE” value in [11] was 5 (5=80-100%).
